In article PMC12472303 (2025):

Experiments:
[1] = test system: Tel22 (DNA, G4) AGGGTTAGGGTTAGGGTTAGGG; assay: fluorimetric titration, SPECFIT; conditions: Na+ (sodium cacodylate, I = 0.1 M), pH 7.0, <0.1% DMSO
[2] = test system: poly dAdT-poly dAdT (DNA, polymer) AT; assay: UV thermal melting at 260 nm; conditions: Na+ (sodium cacodylate, I = 0.05 M), pH 7.0, polynucleotide 20 µM nucleotide, r [compound]/[polynucleotide] = 0.3, error ±0.5 °C, per base
[3] = test system: poly rA-poly rU (RNA, polymer) A/U; assay: UV thermal melting at 260 nm; conditions: Na+ (sodium cacodylate, I = 0.05 M), pH 7.0, polynucleotide 20 µM nucleotide, r [compound]/[polynucleotide] = 0.3, error ±0.5 °C, per base
[4] = test system: Tel22 (DNA, G4) AGGGTTAGGGTTAGGGTTAGGG; assay: UV thermal melting at 260 nm; conditions: Na+ (sodium cacodylate, I = 0.1 M), pH 7.0, Tel22 1–2 µM, r [compound]/[Tel22] = 4
[5] = test system: poly dAdT-poly dAdT (DNA, polymer) AT; assay: fluorimetric titration, Scatchard; conditions: Na+ (sodium cacodylate, I = 0.05 M), pH 7.0, per phosphate (nucleotide), n fixed at 0.2, <0.1% DMSO, per base
[6] = test system: poly dGdC-poly dGdC (DNA, polymer) GC; assay: fluorimetric titration, Scatchard; conditions: Na+ (sodium cacodylate, I = 0.05 M), pH 7.0, per phosphate (nucleotide), n fixed at 0.2, <0.1% DMSO, per base
[7] = Na-cacodylate buffer, concentration as oligonucleotide

| SMILES | log K1 [1, 7] | ΔTm [2] | ΔTm [3] | binding [4] | log Ks [5] | log Ks [6] | log K1 ([1]; Na-cacodylate, second step LG + G = LG2 log K2 5.07 ± 0.26) |
| --- | --- | --- | --- | --- | --- | --- | --- |
| N=C(N)Nc1ccc2c3c(cccc13)-c1ccccc1-2 | 5.26 ± 0.13 log K | 0 °C | +0.9 °C | – | – | – | – |
| N=C(N)Nc1ccc2ccccc2c1 | 5.36 ± 0.07 log K | 0 °C | 0 °C | weak | 4.17 log Ks | – | – |
| NC(N)=Nc1cc2ccccc2c2ccccc12 | 5.61 ± 0.02 log K | +0.9 °C | +1.3 °C | – | 6.27 log Ks | 5.34 log Ks | – |
| N=C(N)Nc1ccc2c(c1)Cc1ccccc1-2 | 5.78 ± 0.08 log K | 0 °C | −1.0 °C | – | – | – | – |
| N=C(N)Nc1ccc(-c2c3nc(c(-c4ccccc4)c4ccc([nH]4)c(-c4ccccc4)c4nc(c(-c5ccccc5)c5ccc2[nH]5)C=C4)C=C3)cc1 | – | – | – | – | – | – | 7.23 ± 0.49 log K |
